Measured values reported in patent publication US7781465B2, “Therapeutic oxazolidinones and thiazolidinones” (Allergan, Inc., priority 2007, dated 2010).

Columns and labels:
hDP = molecular target: T1, hDP (Homo sapiens, UniProt Q13258); assay: Other receptors functional assay, hDP; format: cell-based
T1 sequence (Q13258 1-359): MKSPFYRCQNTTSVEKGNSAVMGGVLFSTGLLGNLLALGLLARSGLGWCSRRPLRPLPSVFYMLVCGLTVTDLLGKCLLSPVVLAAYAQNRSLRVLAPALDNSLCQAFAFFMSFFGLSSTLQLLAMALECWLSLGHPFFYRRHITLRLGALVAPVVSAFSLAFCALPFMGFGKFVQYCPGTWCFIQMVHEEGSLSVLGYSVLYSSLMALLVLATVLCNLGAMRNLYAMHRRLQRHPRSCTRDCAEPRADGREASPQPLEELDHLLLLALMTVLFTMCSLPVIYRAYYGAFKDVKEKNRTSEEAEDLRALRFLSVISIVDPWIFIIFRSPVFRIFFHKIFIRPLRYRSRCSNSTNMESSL
Text: (§1) U.S. Patent Application Publication No. 20070129552, incorporated by reference herein, describes the methods used to obtain the in vitro data in the table below.

EP4 [1] = molecular target: T2, EP4 (Homo sapiens, UniProt P35408); assay: EP4 binding (Ki)
T2 sequence (P35408 whole entry): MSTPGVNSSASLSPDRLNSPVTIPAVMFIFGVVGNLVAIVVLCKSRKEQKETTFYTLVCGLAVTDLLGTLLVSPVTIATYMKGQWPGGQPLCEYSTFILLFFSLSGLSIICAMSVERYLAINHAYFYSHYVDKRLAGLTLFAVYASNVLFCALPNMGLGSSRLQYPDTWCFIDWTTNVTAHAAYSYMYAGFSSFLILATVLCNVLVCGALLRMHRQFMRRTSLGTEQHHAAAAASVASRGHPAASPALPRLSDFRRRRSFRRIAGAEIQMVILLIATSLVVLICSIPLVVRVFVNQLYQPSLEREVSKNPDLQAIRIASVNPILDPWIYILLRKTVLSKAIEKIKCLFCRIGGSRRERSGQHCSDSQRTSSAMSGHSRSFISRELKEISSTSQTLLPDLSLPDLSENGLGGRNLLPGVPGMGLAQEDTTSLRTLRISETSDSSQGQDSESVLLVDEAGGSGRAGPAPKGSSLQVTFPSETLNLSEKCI
Text: as §1

hEP3A = molecular target: T3, hEP3A (Homo sapiens, UniProt P43115); assay: Other receptors functional assay, hEP3A; format: cell-based
T3 sequence (P43115 1-390): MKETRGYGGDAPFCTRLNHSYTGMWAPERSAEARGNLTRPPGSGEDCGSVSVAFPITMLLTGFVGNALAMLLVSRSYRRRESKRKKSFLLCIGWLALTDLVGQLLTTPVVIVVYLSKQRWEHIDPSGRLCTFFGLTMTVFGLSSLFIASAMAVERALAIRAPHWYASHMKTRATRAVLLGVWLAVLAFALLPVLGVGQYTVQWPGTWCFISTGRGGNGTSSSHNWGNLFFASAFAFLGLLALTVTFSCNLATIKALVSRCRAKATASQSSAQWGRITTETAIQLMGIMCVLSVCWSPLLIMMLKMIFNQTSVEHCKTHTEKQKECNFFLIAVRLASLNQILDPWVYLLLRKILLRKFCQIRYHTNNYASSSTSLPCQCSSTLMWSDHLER
Text: as §1

EP2 [2] = molecular target: T4, EP2 (Homo sapiens, UniProt P43116); assay: EP2 binding (Ki)
T4 sequence (P43116 whole entry): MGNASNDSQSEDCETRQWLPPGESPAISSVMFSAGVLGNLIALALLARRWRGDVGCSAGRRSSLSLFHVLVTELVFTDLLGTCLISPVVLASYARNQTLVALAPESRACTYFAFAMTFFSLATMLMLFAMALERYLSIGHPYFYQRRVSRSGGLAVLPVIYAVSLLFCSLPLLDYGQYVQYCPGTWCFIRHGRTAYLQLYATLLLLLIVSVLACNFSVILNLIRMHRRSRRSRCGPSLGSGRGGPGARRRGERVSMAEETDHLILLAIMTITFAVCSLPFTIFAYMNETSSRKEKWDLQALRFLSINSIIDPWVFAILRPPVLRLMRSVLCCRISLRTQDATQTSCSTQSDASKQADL
Text: as §1

EP2 [3] = molecular target: T4, EP2; assay: EP2 flipr functional assay; format: cell-based
Text: as §1

EP4 [4] = molecular target: T2, EP4; assay: EP4 flipr functional assay; format: cell-based
Text: as §1

normotensive dogs [5] = assay: Ocular surface hyperemia in normotensive dogs; format: in vivo, dog; settings: 0.003%, once daily for 5 days, at 50 h
Procedure: (§2) U.S. Pat. No. 7,183,324 describes the methods used to obtain the in vitro results presented below.
(§3) Isopropyl 5-(3-((R)-3-(4-((S)-1-hydroxyhexyl)phenyl)-4-oxooxazolidin-2-yl)propyl)thiophene-2-carboxylate (12j) was tested in normotensive dogs at 0.003%, dosing once daily for 5 days. The maximum intraocular pressure (IOP) decrease from baseline was 5.4 mmHg (36%) at 54 h; the maximum ocular surface hyperemia (OSH) score was 1.75 at 50 h.

normotensive dogs [6] = assay: Intraocular pressure in normotensive dogs; format: in vivo, dog; settings: 0.003%, once daily for 5 days, at 54 h
Procedure: as §2, §3

| SMILES | EC50 (hDP) | Ki (EP4 [1]) | EC50 (hEP3A) | Ki (EP2 [2]) | EC50 (EP2 [3]) | EC50 (EP4 [4]) | maximum ocular surface hyperemia (OSH) score (normotensive dogs [5]) | maximum intraocular pressure (IOP) decrease from baseline (normotensive dogs [6]) | maximum intraocular pressure (IOP) decrease from baseline, percent (normotensive dogs [6]) |
| --- | --- | --- | --- | --- | --- | --- | --- | --- | --- |
| CCCCCC(O)c1ccc(N2C(=O)CSC2CCCc2ccc(C(=O)O)s2)cc1 (stereo not drawn) [Example 1, 5-(3-(3-(4-(1-hydroxyhexyl)phenyl)-4-oxo-thiazolidin-2-yl)propyl)thiophene-2-carboxylic acid] |  | 1460 nM | 8320 nM | 17500 nM | 4400 nM | > 10000 nM |  |  |  |
| O=C(O)c1ccc(CCCC2OCC(=O)N2c2ccccc2)s1 (stereo not drawn) [Example 9, 5-(3-(4-oxo-3-phenyloxazolidin-2-yl)propyl)thiophene-2-carboxylic acid] | > 10000 nM | > 10000 nM |  | 680 nM | 3080 nM |  |  |  |  |
| CCCCC[C@H](O)c1ccc(N2C(=O)CO[C@@H]2CCCc2ccc(C(=O)OC(C)C)s2)cc1 [Example 12j, Isopropyl 5-(3-((R)-3-(4-((S)-1-hydroxyhexyl)phenyl)-4-oxooxazolidin-2-yl)propyl)thiophene-2-carboxylate] |  |  |  |  |  |  | 1.75 | 5.4 mmHg | 36% |

Further lines, with some results ahead:

| EC50 (hDP) | Ki (EP4 [1]) | EC50 (hEP3A) | Ki (EP2 [2]) | EC50 (EP2 [3]) | EC50 (EP4 [4]) | maximum ocular surface hyperemia (OSH) score (normotensive dogs [5]) | SMILES | maximum intraocular pressure (IOP) decrease from baseline (normotensive dogs [6]) | maximum intraocular pressure (IOP) decrease from baseline, percent (normotensive dogs [6]) |
| --- | --- | --- | --- | --- | --- | --- | --- | --- | --- |
| 1970 nM | > 10000 nM | 268 nM | 90 nM | 82 nM |  |  | CCCCC[C@H](O)c1ccc(N2C(=O)CO[C@H]2CCCc2ccc(C(=O)O)s2)cc1 (single isomer, unassigned) [Example 3] |  |  |
| 73 nM | > 10000 nM | 4 nM | 7 nM | 1.2 nM |  |  | CCCCC[C@H](O)c1ccc(N2C(=O)CO[C@@H]2CCCc2ccc(C(=O)O)s2)cc1 (single isomer, unassigned) [Example 4] |  |  |
| 213 nM | > 10000 nM | 11 nM | 14 nM | 8 nM |  |  | CCCCCC(O)c1ccc(N2C(=O)COC2CCCc2ccc(C(=O)O)s2)cc1 (stereo not drawn) [Example 2, 5-(3-(3-(4-(1-hydroxyhexyl)phenyl)-4-oxo-oxazolidin-2-yl)propyl)thiophene-2-carboxylic acid] |  |  |
| 656 nM | 2130 nM | 237 nM | 3 nM | 37 nM | 12600 nM |  | CCCCCCc1ccc(N2C(=O)COC2CCCc2ccc(C(=O)O)s2)cc1 (stereo not drawn) [Example 8, 5-(3-(3-(4-hexylphenyl)-4-oxooxazolidin-2-yl)propyl)thiophene-2-carboxylic acid] |  |  |
